Legend:
Aβ1-42 peptide secretion = test: Quantification of secreted Aβ1-42 by ELISA in SY5Y-APP695WT cells; type: cell-based; details: Homo sapiens; concentration inhibiting 50% of Aβ1-42 peptide secretion in SY5Y cells; 24 h treatment; mean ± SD of at least two experiments in triplicate
Procedure: (§1) Cell culture and treatment. The human neuroblastoma cell line […] was maintained in Dulbecco's modified Eagle medium (DMEM, high glucose, pyruvate-GIBCO by Life Technologies) supplemented with 10% foetal bovine serum, 2 mM L-glutamine, 1 mM non-essential amino acids and penicillin/streptomycin (GIBCO by Life Technologies) at 37° C. in a 5% CO2 humidified incubator. […] cells were maintained in 75 cm^2 culture flasks (Falcon) with supplemented DMEM medium until they reached 80% of confluence 24 h before treatment. For compounds treatment, a 10 mM stock solution was diluted in freshly supplemented DMEM medium to obtain the precise final concentration of drug. Bafilomycin A1 (BafA1), the vacuolar […] type H+ ATPase inhibitor, was purchased from Merck Millipore and was used at a final dilution of 100 nM. For drug treatment, cells were plated at a rate of 5·10^5 cells per well into 12-well plates (Falcon) and cultured with 1 mL supplemented DMEM cell medium for 24 h before drug exposure. The following day, cell medium was replaced with fresh medium containing drugs diluted at the indicated concentrations. Cells were treated for 24 h. At the end of treatments, the cell medium was collected and kept at -80° C. until use for dosage. Then, cells were rinsed once with PBS and extracted in 100 μL of Laemmli buffer (10 mM Tris, 20% glycerol and 2% Sodium dodecyl sulfate) using a cell-scraper. The cell lysate was further sonicated (30 pulses of 0.5 s, 60 Hz) for 5 min. Total protein concentration was determined using the Pierce BCA Protein Assay Kit (Thermo scientific) according to the manufacturer's instructions. Samples were stored at -80° C. until analysis. Quantification of secreted Aβ1-40/1-42 and sAPPα/sAPPβ. Conditioned media of […] collected at the end of treatments were centrifuged at 1000 g for 5 min to eliminate cells debris. Aβ1-40 and Aβ1-42 peptide concentrations in […] were determined using amyloid-beta 40 and 42 Human ELISA kits (Invitrogen) according to the manufacturer's instructions after 1:10 and 1:2 dilutions of supernatants in ELISA buffer, respectively. sAPPα and sAPPβ concentrations in ng/mL were determined using the sAPPα/sAPPβ kit (Meso Scale Diagnostics, MSD®) according to the manufacturer's instructions. Compounds of the invention (compounds 24-37, 41, 44 and 51-58) were evaluated for their ability to modulate APP processing on SY5Y human neuroblastoma cell line stably expressing the neuronal isoform of human wild-type APP695 (SYSY-APPwt). Aβ levels (Aβ1-40 and Aβ1-42) after treatment with reference and tested compounds were measured by ELISA (Table 2). […] APP carboxy-terminal fragments (αCTFs and AICD) were measured by Western blot and quantified. The effect of reference and tested compounds on αCTFs and AICD are expressed as the intensity of corresponding western-blot bands resulting from the secretase cleavages.

Aβ1-40 peptide secretion = test: Quantification of secreted Aβ1-40 by ELISA in SY5Y-APP695WT cells; type: cell-based; details: Homo sapiens; concentration inhibiting 50% of Aβ1-40 peptide secretion in SY5Y cells; 24 h treatment; mean ± SD of at least two experiments in triplicate
Procedure: as §1

[1] = Stability of aqueous drinking solutions; type: physicochemical
Procedure: Thy-Tau22 transgenic colonies (C57Bl/6J genetic background) were obtained by crossing heterozygous males C57Bl/6J with WT females. All animals were housed in a pathogen-free facility at 5 to 6 animals per cage (Techniplast Cages 1284L), with ad libitum access to food and water in a 12/12-hour light-dark cycle and maintained under a constant temperature of 22° C. For treatment, animals were randomly distributed and compound 30 or 31 was provided in the drinking water at a final concentration of 1 mg/kg, ie […] for drinking solutions taking into account an average weight of 25 g/mouse drinking 4 mL/day. […] Food consumption and bodyweight were also assessed. In WT animals, a pilot study of drug treatment was performed for one month to establish the innocuousness of compound 30 and 31 treatments. Thy-Tau22 females were treated for 1 months, starting at 6 months of age.

IC50 (Aβ1-42 peptide secretion) | IC50 (Aβ1-40 peptide secretion) | stability of aqueous solutions [1] | SMILES
3400 ± 1900 nM | 2800 ± 1200 nM | stable during more than one week | CN(C)Cc1ccccc1-c1ccc(NCCCN2CCCCC2)c(OCCN2CCCCC2)c1 [Compound 30, 4-(2-[(Dimethylamino)methyl]phenyl)-2-[2-(piperidin-1-yl)ethoxy]-N-[3-(piperidin-1-yl)propyl]aniline]
2800 ± 100 nM | 2100 ± 300 nM | stable during more than one week | CN(C)Cc1ccccc1-c1ccc(NCCCN2CCCCC2)c(OCCC2CCCCC2)c1 [Compound 31, 3-(2-cyclohexylethoxy)-2′-((dimethylamino)methyl)-N-(3-(piperidin-1-yl)propyl)-[1,1′-biphenyl]-4-amine]

From patent US20210230131A1, “POLYAMINO BIARYL COMPOUNDS AND THEIR USE” (INSERM (INSTITUT NATIONAL DE LA SANTÉ ET DE LA RECHERCHE …, priority 2018, published 2021)
